Results on ten compounds are retold here after patent US4873253A, “Phenylalanine derivative and proteinase inhibitor” (Okamoto; Shosuke, priority 1987, dated 1989).

Counter-ions that a name gives are not always drawn. Like-named read-outs stand apart in the source and are kept apart here.

For data set [1], the target named is T1, bovine thrombin (Bos taurus, UniProt P00735).
T1 construct: a 0.2 unit/ml bovine thrombin solution
Description: Antithrombin activity: inhibition of S-2238 decomposition. Format: biochemical. The conditions noted are these: Table 2; substrate S-2238, pH 8.3, 37° C.; read-out: Thrombin S-2238 I50. The procedure:
An inhibitor sample is dissolved in a 0.05 M Tris-hydrochloric acid buffer solution (pH=8.3) to make a total volume of 400 μl. […] Thus, the concentration I50 (μmol) of the inhibitor sample at which the absorbance is one half (i.e., 1/2) of that obtained in the absence of the inhibitor sample, is determined.

Data set [2] concerns the target T1, bovine thrombin. Put plainly: Antithrombin activity: inhibition of fibrin formation (fibrinogen). The class given is biochemical. As to the method:
(i) Determination of inhibition activity against fibrin formation
An inhibitor sample is dissolved in a 0.18 M borate-physiological salt buffer solution (pH= 7.4) to make the total volume to 500 μl. […] Thus, a coagulation time is determined. The inhibitor concentration I50 (μmol), at which the coagulation time obtained in the absence of the inhibitor is extended twice, is determined.

Data set [3] deals with T2, bovine trypsin (Bos taurus, UniProt P00760).
T2 sequence (P00760 24-246): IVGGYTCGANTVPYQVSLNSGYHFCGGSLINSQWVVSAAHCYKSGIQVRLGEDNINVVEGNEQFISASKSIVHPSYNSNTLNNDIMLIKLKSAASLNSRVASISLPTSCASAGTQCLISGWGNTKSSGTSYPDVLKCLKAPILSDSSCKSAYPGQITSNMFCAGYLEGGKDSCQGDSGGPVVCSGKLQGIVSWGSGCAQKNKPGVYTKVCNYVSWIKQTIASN
Description: Antitrypsin activity: inhibition of S-2238 decomposition. The class given is biochemical. The procedure: Determination of inhibition activity against S-2238 decomposition
An inhibitor sample is dissolved in a 0.05 M Tris-imidazole buffer solution (pH=8.1) and 125 μl of a 1 mM S-2238 solution is added to make the total volume to 1.20 ml. The mixture is incubated at a temperature of 37° C. for 5 minutes in a constant temperature bath. To this mixture, 0.05 ml of bovine trypsin is added and the absorbance, at 405 nm, of the p-nitroaniline formed per minute is determined at a temperature of 37° C. by using the so-called initial velocity method. Thus, the concentration I50 (μmol) of a inhibitor sample, at which the absorbance is one half (i.e., 1/2) of that obtained in the absence of the inhibitor sample, is determined.

Data set [4] concerns the target T3, human plasmin (Homo sapiens, UniProt P00747). Put plainly: Antiplasmin activity: inhibition of S-2251 decomposition. The class given is biochemical. The note with it: Table 2; substrate S-2251, pH 7.4, 37° C. The procedure: An inhibitor sample is dissolved in a 0.05 M Tris-hydrochloric acid buffer solution (pH=7.4) to make the total volume to 400 μl. […] Then, 50 μl of a 0.2 casein unit/ml human plasmin is added and the mixture is incubated at a temperature of 37° C. for 4 minutes. Thereafter, the reaction is stopped by adding 50 μl of 50% acetic acid.
Thus, the concentration I50 (μmol) of the inhibitor sample, at which the absorbance is one half (i.e., 1/2) of that obtained in the absence of the inhibitor, is determined.

Data set [5] concerns the target T3, human plasmin. Put plainly: Antiplasmin activity: inhibition of fibrin decomposition. Format: biochemical. The conditions noted are these: Table 2, pH 7.4, 37° C., read-out: Plasmin Fibrin I50 (concentration doubling fibrin dissolution time). As to the method: (i) Determination of inhibition activity for fibrin decomposition
An inhibitor sample is dissolved in a 0.18 M borate-physiological salt buffer solution (pH=7.4) to make the total volume to 600 μl. To this buffer solution, 200 μl of a 0.2% bovine fibrinogen, 100 μl of a 0.3 casein unit/ml human plasmin solution, and 100 μl of a 50 unit/ml bovine thrombin solution, all dissolved in the above-mentioned buffer, are added at a temperature of 37° C. in a constant temperature bath. Then, the dissolution time of the fibrin mass formed above is determined.

Data set [6] has as its target human plasma kallikrein (Homo sapiens, UniProt P03952). Description: Anti-plasma kallikrein activity: inhibition of S-2302 decomposition. Format: biochemical. The procedure:
Determination of inhibition activity for S-2302 decomposition
(§1) An inhibitor sample is dissolved in a 0.05 M Tris-hydrochloric acid buffer solution (pH=7.8) to make the total volume to 400 μl. To this solution, 50 μl of a 2 mM S-2302 solution is added and the mixture is incubated at a temperature of 37° C. for 5 minutes in a constant temperature bath. Then, 50 μl of a 0.12 unit/ml human plasma kallikrein is added and the mixture is incubated at a temperature of 37° C. for 5 minutes. Thereafter, 50 μl of 50% acetic acid is added to terminate the reaction. The absorbance of the p-nitroaniline formed in the reaction mixture is measured at 405 nm. Thus, the concentration I50 (μmol) of the inhibitor sample, at which the absorbance is one half (i.e., 1/2) of that obtained in the absence of the inhibitor sample, is determined.

Data set [7] concerns the target human urokinase (Homo sapiens, UniProt P00749). Put plainly: biochemical. The procedure: Determination of inhibition activity for S-2444 decomposition
as §1, with “solution (pH=8.8)” for “solution (pH=7.8)”, “a 1” for “a 2”, “mM S-2444” for “mM S-2302”, “a 500” for “a 0.12”, “human urokinase” for “human plasma kallikrein”

The conditions of data set [8]: background statement; cited from earlier work.
For data set [9] the following is noted: background statement; cited from earlier work. This is another data set of the same source.
The conditions of data set [10]: background statement; cited from earlier work. This is another data set of the same source.
The conditions of data set [11]: background statement; cited from earlier work. This is another data set of the same source.
Where [12] appears, read: Table 2, bovine fibrinogen, pH 7.4, 37° C., read-out: Thrombin Fibrinogen I50 (concentration doubling coagulation time).
The mark [13] stands for this setting: Table 2, substrate S-2238, pH 8.1, 37° C., read-out: Trypsin S-2238 I50.
[14] abbreviates: Table 2, substrate S-2302, pH 7.8, 37° C., read-out: Plasma Kallikrein S-2302 I50.
[15] abbreviates: Table 2, substrate S-2444, pH 8.8, 37° C., read-out: Urokinase S-2444 I50.

T3 sequence (P00747 581-810 limits assumed): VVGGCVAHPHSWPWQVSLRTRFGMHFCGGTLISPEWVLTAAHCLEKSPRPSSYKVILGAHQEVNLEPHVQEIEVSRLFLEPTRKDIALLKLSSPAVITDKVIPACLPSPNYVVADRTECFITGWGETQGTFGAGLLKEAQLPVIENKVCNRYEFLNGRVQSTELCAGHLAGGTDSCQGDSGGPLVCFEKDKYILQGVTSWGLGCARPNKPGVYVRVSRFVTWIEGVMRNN
T3 sequence (P00747 97-580 limits assumed): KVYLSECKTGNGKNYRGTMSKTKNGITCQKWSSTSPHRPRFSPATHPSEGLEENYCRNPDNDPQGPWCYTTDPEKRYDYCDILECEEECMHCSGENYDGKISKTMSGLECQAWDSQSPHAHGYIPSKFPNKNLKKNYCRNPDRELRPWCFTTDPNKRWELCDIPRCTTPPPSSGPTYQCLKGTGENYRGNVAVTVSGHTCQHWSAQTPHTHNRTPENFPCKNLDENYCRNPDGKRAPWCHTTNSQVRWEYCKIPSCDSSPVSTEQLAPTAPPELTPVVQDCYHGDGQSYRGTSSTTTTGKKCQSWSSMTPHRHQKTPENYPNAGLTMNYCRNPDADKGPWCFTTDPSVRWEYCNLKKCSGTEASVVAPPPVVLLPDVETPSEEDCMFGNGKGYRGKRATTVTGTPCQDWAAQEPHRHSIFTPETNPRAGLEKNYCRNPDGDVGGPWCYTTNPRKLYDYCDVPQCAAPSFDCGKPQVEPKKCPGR
human plasma kallikrein, sequence (P03952 391-638 limits assumed): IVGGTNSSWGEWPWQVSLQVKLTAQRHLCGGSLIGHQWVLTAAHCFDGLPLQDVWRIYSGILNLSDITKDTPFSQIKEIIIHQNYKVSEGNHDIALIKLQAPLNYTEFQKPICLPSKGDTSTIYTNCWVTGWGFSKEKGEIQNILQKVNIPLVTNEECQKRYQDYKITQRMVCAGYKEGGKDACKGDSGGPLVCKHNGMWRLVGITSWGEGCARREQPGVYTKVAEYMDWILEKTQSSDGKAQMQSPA
human plasma kallikrein, sequence (P03952 20-390 limits assumed): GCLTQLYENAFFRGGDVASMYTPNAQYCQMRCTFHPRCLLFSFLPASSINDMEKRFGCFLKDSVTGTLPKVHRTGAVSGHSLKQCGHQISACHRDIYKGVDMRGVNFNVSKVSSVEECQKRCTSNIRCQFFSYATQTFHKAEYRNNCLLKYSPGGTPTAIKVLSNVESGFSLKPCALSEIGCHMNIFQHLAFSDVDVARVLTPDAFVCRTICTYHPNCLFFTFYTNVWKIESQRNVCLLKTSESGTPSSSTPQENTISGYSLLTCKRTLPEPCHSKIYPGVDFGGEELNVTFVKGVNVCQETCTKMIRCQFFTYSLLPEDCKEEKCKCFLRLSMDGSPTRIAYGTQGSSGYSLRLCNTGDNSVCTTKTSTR

In the case of `NC[C@H]1CC[C@H](C(=O)NC(Cc2cccc(Oc3ccccc3)c2)C(=O)Nc2ccnc(Cl)c2)CC1` (mixture of isomers) [Compound 9, N-(trans-4-aminomethylcylohexylcarbonyl)-3-phenoxy-DL-phenylalanine 4-(2-chloro)pyridylamide dihydrochloride], the results for the IC50 in data set [1], in [2] (setting [12]) and in [3] (setting [13]) were more than 1000 µM, more than 500 µM and 2.3 µM, respectively.
As to `CC(=O)c1ccc(NC(=O)C(Cc2cccc(Oc3ccccc3)c2)NC(=O)[C@H]2CC[C@H](CN)CC2)cc1` (mixture of isomers) [Compound 2, N-(trans-4-aminomethylcyclohexylcarbonyl)-3-phenoxy-DL-phenylalanine 4-acetylanilide hydrochloride], the IC50 in data set [4] was 19 µM; in data set [5], 14 µM; in data set [1], more than 100 µM; in [2] (setting [12]), more than 100 µM; in data set [3] (setting [13]), 2.3 µM; in [6] (setting [14]) it was 0.38 µM. Besides, in data set [7] (setting [15]), the IC50 came out at 110 µM.
Take `NC[C@H]1CC[C@H](C(=O)NC(Cc2cccc(Oc3ccccc3)c2)C(=O)Nc2ccncc2)CC1` (mixture of isomers) [Compound 8, N-(trans-4-aminomethylcyclohexylcarbonyl)-3-phenoxy-DL-phenylalanine 4-pyridylamide dihydrochloride]: the IC50 is 65 µM in [4]; 24 µM in data set [5]; more than 100 µM in data set [1]; more than 400 µM in data set [2] (setting [12]); 8.8 µM in data set [3] (setting [13]); 0.83 µM in [6] (setting [14]). For the same compound, in [7] (setting [15]), the IC50 is 87 µM.
With `NC[C@H]1CC[C@H](C(=O)NC(Cc2cccc(Oc3ccccc3)c2)C(=O)O)CC1` (mixture of isomers) [Compound 58, N-(trans-4-aminomethylcyclohexylcarbonyl)-3-phenoxy-DL-phenylalanine], the IC50 was more than 1000 µM in data set [1], more than 150 µM in data set [3] (setting [13]), 600 µM in data set [6] (setting [14]) and more than 1000 µM in data set [7] (setting [15]).
In the case of `COCCCNC(=O)C(Cc1cccc(C(F)(F)F)c1)NC(=O)[C@H]1CC[C@H](CN)CC1` (stereo partly shown) [Compound 28], the IC50 was more than 1000 µM in data set [4]; 260 µM in [5]; more than 1000 µM in data set [2] (setting [12]); 87 µM in data set [3] (setting [13]); more than 1000 µM in data set [6] (setting [14]); more than 1000 µM in data set [7] (setting [15]).
Take `CCOC(=O)C1CCN(C(=O)C(Cc2cccc(Oc3ccccc3)c2)NC(=O)[C@H]2CC[C@H](CNC(=N)N)CC2)CC1` (stereo partly shown) [Compound 31]: the IC50 was 160 µM in data set [4]; more than 100 µM in data set [5]; more than 100 µM in [2] (setting [12]); more than 150 µM in data set [3] (setting [13]); more than 100 µM in [6] (setting [14]); more than 500 µM in data set [7] (setting [15]).
As for `CC(=O)c1ccc(NC(=O)C(Cc2cccc(Oc3ccccc3)c2)NC(=O)c2ccc(NC(=N)N)cc2)cc1` (stereo not shown) [Compound 32], the IC50 in [4] is 120 µM; in data set [5] it was more than 25 µM; in data set [2] (setting [12]), more than 25 µM; in data set [3] (setting [13]), 15 µM; in data set [6] (setting [14]), 2.2 µM; in data set [7] (setting [15]), 100 µM.
In the case of `CCOC(=O)c1cccc(NC(=O)C(Cc2cccc(Oc3ccccc3)c2)NC(=O)c2ccc(NC(=N)N)cc2)c1` (stereo not shown) [Compound 33], the IC50 in [4] is more than 100 µM; in data set [5], more than 25 µM; in data set [2], more than 25 µM; in data set [3] (setting [13]), 42 µM; in data set [6] (setting [14]) it was 4.5 µM; in data set [7] (setting [15]), more than 200 µM.
For the compound `N=C(N)c1ccc2cc(OC(=O)c3ccc(N=C(N)N)cc3)ccc2c1` [FUT-175, reference compound], the IC50 turned out to be 0.27 µM in [3], 0.076 µM in [6] and 0.013 µM in data set [7]. Further, in [8], the “half life in vivo” value is on record as “short”. For the same compound, the hypotensive action entry in data set [9] is recorded as “large”. The LD50 value entry in data set [10] was “small”.
For the compound Aprotinin, in [11], the “side effects when administered to humans” value is reported as “side effects such as allergic reactions”.
